Test results taken from article PMC9120478 (Nature Communications, 2022).
Positions count from the first letter of the chain named.

Key:
F666A mutant TRPV3 = target: T1, F666A mutant TRPV3 (Mus musculus, UniProt Q8K424, F666A); assay: Fura-2 ratiometric Ca2+ uptake, inhibition of 2-APB-evoked response; assay type: cell-based; conditions: n = 3
T1 construct: expressed in transfected cells; host or cells: HEK 293 S GnTI- cells (baculovirus transduction)
T1 sequence (Q8K424 1-791 F666A): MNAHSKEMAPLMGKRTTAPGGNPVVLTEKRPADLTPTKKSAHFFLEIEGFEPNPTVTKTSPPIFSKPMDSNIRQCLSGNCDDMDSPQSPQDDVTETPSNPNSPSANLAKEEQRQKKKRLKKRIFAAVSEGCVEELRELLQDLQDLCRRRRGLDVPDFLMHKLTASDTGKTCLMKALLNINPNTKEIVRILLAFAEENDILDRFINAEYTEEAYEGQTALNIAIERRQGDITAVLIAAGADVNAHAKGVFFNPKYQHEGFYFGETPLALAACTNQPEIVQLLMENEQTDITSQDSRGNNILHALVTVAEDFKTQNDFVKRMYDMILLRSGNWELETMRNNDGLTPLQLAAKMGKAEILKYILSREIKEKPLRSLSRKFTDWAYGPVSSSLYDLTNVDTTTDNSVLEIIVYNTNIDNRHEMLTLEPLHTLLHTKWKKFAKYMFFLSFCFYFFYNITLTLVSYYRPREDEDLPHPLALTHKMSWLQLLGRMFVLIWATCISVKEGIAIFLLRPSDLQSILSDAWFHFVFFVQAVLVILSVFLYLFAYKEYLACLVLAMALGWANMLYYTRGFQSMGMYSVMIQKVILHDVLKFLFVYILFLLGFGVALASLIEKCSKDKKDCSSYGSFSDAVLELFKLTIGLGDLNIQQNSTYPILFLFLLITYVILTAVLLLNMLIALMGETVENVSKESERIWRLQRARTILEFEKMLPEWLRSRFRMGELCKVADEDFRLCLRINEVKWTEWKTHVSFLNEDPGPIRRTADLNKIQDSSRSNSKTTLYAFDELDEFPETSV
Procedure: (§1) GFP-free C-terminally strep-tagged wild-type TRPV3, TRPV3-Y564A, TRPV3-Y594A, TRPV3-F633A, TRPV3-I663W, and TRPV3-F666A were expressed in HEK 293 S GnTI^− cells as previously described[41],[42],[53]. In short, 48 h after transduction, 1-ml aliquots of cell suspension were collected by centrifugation at 550 g for 5 min using an Eppendorf 5424 centrifuge. The cells were resuspended in the pre-warmed modified HEPES-buffered saline (HBS) containing 118 mM NaCl, 4.8 mM KCl, 1 mM MgCl2, 5 mM D-glucose, and 10 mM HEPES pH 7.4 and 5 μg/ml Fura-2 AM (Thermo Fisher Scientific) and incubated for 45 min at 37 °C. The Fura-2-loaded cells were then centrifuged for 5 min at 550 g, resuspended in the pre-warmed, modified HBS and incubated again for 30 min at 37 °C in the dark. The cells were subsequently pelleted and washed twice in the modified HBS. The washed cell pellets were kept on ice in the dark before taking an aliquot for fluorescence measurements. […] We used the lower CaCl2 concentration than before[42],[28] (2.5 mM) to minimize non-specific effects, which often appeared as a drift in the Fura-2 signal at high Ca^2+ concentration, presumably due to cell death as a result of calcium overload. Fluorescence measurements were conducted using a QuantaMaster 40 spectrofluorometer (Photon Technology International) at room temperature in a quartz cuvette under constant stirring. After 60 s since the beginning, the recording was paused and 2-APB was added. After the addition of 2-APB, the recording was continued for the additional 140 s. Changes in intracellular Ca^2+ were measured by taking the ratio of fluorescence emitted at 510 nm at the excitation wavelength of 340 nm and 380 nm. […] The data were processed using Origin 9.0 (OriginLab) software.

wild-type mouse TRPV3 = target: T2, wild-type mouse TRPV3 (Mus musculus, UniProt Q8K424); assay: as above; assay type: cell-based
T2 construct: expressed in transfected cells; host or cells: HEK 293 S GnTI- cells (baculovirus transduction)
T2 sequence (Q8K424 1-791): T1 sequence (Q8K424 1-791 F666A) with A666F
Procedure: as §1

## CCCCOc1ccc(C(=O)CCN2CCCCC2)cc1 [dyclonine, 1-(4-butoxyphenyl)-3-piperidin-1-ylpropan-1-one]
F666A mutant TRPV3; HEK 293 GnTI- cells, 200 µM 2-APB after pre-incubation with inhibitor
  IC50: 673 ± 37 µM
F666A mutant TRPV3; logistic fit
  nHill of inhibition curve, F666A: 2.07 ± 0.08
wild-type mouse TRPV3; logistic fit, 200 µM 2-APB, n = 7
  nHill of inhibition curve: 1.61 ± 0.27
wild-type mouse TRPV3; read-out: IC50, inhibition of TRPV3-mediated Ca2+ uptake
  IC50: 29.8 ± 5.3 µM
